Reference: ChEMBL document CHEMBL1201862, “PubChem BioAssay data set” (2004)
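Five compound concentrations were applied to cells in 96-well plates for 48 hours; endpoints were derived by simple linear interpolation of the resulting dose-response curve. Here, GI50 denotes the concentration required for 50% inhibition of growth.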 The source made the active and inactive calls. No stated cut-off is given here; in the data, active = GI50 up to about 1.1 µM and inactive = higher.

Columns and labels:
Experiment in all cases: DTP human tumour cell line panel, 48 h
SK-MEL-2 = tested on: SK-MEL-2
SF-295 = tested on: SF-295
UACC-257 = tested on: UACC-257
SN12C = tested on: SN12C
NCI-H23 = tested on: NCI-H23
NCI/ADR-RES = tested on: NCI/ADR-RES
HOP-62 = tested on: HOP-62
MCF7 = tested on: MCF7
DU-145 = tested on: DU-145
SNB-19 = tested on: SNB-19
786-0 = tested on: 786-0
M14 = tested on: M14
HOP-92 = tested on: HOP-92
UACC-62 = tested on: UACC-62
NCI-H522 = tested on: NCI-H522
KM12 = tested on: KM12
HCT-116 = tested on: HCT-116
MOLT-4 = tested on: MOLT-4
HCC 2998 = tested on: HCC 2998
EKVX = tested on: EKVX

Row | SMILES | GI50 (SK-MEL-2) | GI50 (SF-295) | GI50 (UACC-257) | GI50 (SN12C) | GI50 (NCI-H23) | GI50 (NCI/ADR-RES) | GI50 (HOP-62) | GI50 (MCF7) | GI50 (DU-145) | GI50 (SNB-19) | GI50 (786-0) | GI50 (M14) | GI50 (HOP-92) | GI50 (UACC-62) | GI50 (NCI-H522) | GI50 (KM12) | GI50 (HCT-116) | GI50 (MOLT-4) | GI50 (HCC 2998) | GI50 (EKVX)
1 | CC[C@@H]1CC[C@@H]2[C@H](CC[C@]3(C)[C@@H](O)CC[C@@H]23)[C@H]1C(=O)O | > 100 µM (inactive) | > 100 µM (inactive) | > 100 µM (inactive) | > 100 µM (inactive) | > 100 µM (inactive) | > 100 µM (inactive) | > 100 µM (inactive) | > 100 µM (inactive) | > 100 µM (inactive) | > 100 µM (inactive) | > 100 µM (inactive) | > 100 µM (inactive) | > 100 µM (inactive) | > 100 µM (inactive) | > 100 µM (inactive) | > 100 µM (inactive) | > 100 µM (inactive) | > 100 µM (inactive) | > 100 µM (inactive) | > 100 µM (inactive)
2 | C=C(C)[C@H]1Cc2c(ccc3c2O[C@@H]2COc4cc(OC)c(OC)cc4[C@@H]2C3=O)O1 [ROTENONE] | 0.171 µM (active) | 0.0399 µM (active) | 0.0516 µM (active) | 0.404 µM (active) | 0.0258 µM (active) | 0.0635 µM (active) | 0.168 µM (active) | 0.281 µM (active) | 0.133 µM (active) | 0.327 µM (active) | 0.236 µM (active) | 0.21 µM (active) | 0.116 µM (active) | 0.0597 µM (active) | 0.0247 µM (active) | 0.0897 µM (active) | 0.0618 µM (active) | 0.693 µM (active) | 0.316 µM (active) | 0.736 µM (active)
3 | Cc1ccc(C(=O)/C=C2\Nc3ccccc3SC2=O)c(C)c1 | 42.1 µM (inactive) | 46.5 µM (inactive) | 42 µM (inactive) | 40.1 µM (inactive) | 36.9 µM (inactive) | 42.3 µM (inactive) | 32.9 µM (inactive) | 31 µM (inactive) | 75.7 µM (inactive) | 45.3 µM (inactive) | 26.2 µM (inactive) | 62.1 µM (inactive) | 23.4 µM (inactive) | 32.7 µM (inactive) | 26.9 µM (inactive) | 46.8 µM (inactive) | 38 µM (inactive) | 37.7 µM (inactive) | 59.3 µM (inactive) | 54.3 µM (inactive)
4 | O=C1CSC(c2ccccc2O)N1c1ccc(Oc2ccc(Cl)cc2)c(Cl)c1 (stereo not given) | 24.3 µM (inactive) | 16.3 µM (inactive) | 26.2 µM (inactive) | 22.1 µM (inactive) | 18.1 µM (inactive) | 20.6 µM (inactive) | 18.2 µM (inactive) | 26.6 µM (inactive) | 21.1 µM (inactive) | 22 µM (inactive) | 18.8 µM (inactive) | 29.8 µM (inactive) | 18.7 µM (inactive) | 16.4 µM (inactive) | 15.3 µM (inactive) | 17.5 µM (inactive) | 15.3 µM (inactive) | 25.9 µM (inactive) | 17.7 µM (inactive) | 16.8 µM (inactive)
